These results are taken from patent US20100120700A1, “METHODS AND COMPOSITIONS FOR TREATING CERVICAL CANCER” (priority 2000, published 2010).

The target in experiment [1] is T1, KIAA0973 #148.5 domain 1 (Homo sapiens, UniProt Q9Y2H9).
T1 construct: made in house; host or cells: E. coli (DH5alpha, BL21 or JM109)
In words: G assay PDZ-PL binding. Particulars: peptide 10 uM, protein 5. On the procedure:
(§1) (1) A PDZ-domain polypeptide is bound to a surface, e.g. a protein binding surface. In a preferred embodiment, a GST/PDZ fusion protein containing one or more PDZ domains is bound to a polystyrene 96-well plate. […] In one embodiment, the GST/PDZ fusion protein is bound via an anti-GST antibody that is coated onto the 96-well plate. Adequate binding to the plate can be achieved when: • a. 100 uL per well of 5 ug/mL goat anti-GST polyclonal antibody (Pierce) in PBS is added to a polystyrene 96-well plate (e.g., Num Polysorb) at 4° C. for 12 hours. • b. The plate is blocked by addition of 200 uL per well of PBS/BSA for 2 hours at 4° C. • c. The plate is washed 3 times with PBS. • d. 50 uL per well of 5 ug/mL GST/PDZ fusion protein) or, as a negative control, GST polypeptide alone (i.e. not a fusion protein) in PBS/BSA is added to the plate for 2 hours at 4° C. • e. The plate is again washed 3 times with PBS. […]
(§2) (3) The binding of the biotinylated peptide to the GST/PDZ fusion protein surface can be detected using a variety of methods and detectors known to one of skill in the art. In one embodiment, 100 uL per well of 0.5 ug/mL streptavidin-horse radish peroxidase (HRP) conjugate dissolved in BSA/PBS is added and allowed to react for 20 minutes at 4° C. The plate is then washed 5 times with 50 mM Tris pH 8.0 containing 0.2% Tween 20, and developed by addition of 100 uL per well of HRP-substrate solution (TMB, Dako) for 20 minutes at room temperature (RT). The reaction of the HRP and its substrate is terminated by addition of 100 uL per well of 1M sulfuric acid, and the absorbance of each well of the plate is read at 450 nm.
(§3) (4) Specific binding of a PL peptide and a PDZ domain polypeptide is determined by comparing the signal from the well(s) in which the PL peptide and PDZ domain polypeptide are combined, with the background signal(s). The background signal is the signal found in the negative control(s). Typically a specific or selective reaction will be at least twice background signal, more typically more than 5 times background, and most typically 10 or more times the background signal. In addition, a statistically significant reaction will involve multiple measurements of the reaction with the signal and the background differing by at least two standard errors, more typically four standard errors, and most typically six or more standard errors. Correspondingly, a statistical test (e.g. a T-test) comparing repeated measurements of the signal with-repeated measurements of the background will result in a p-value<0.05, more typically a p-value<0.01, and most typically a p-value<0.001 or less. As noted, in an embodiment of the “G” assay, the signal from binding of a given PL peptide to immobilized (surface bound) GST polypeptide alone is one suitable negative control (sometimes referred to as “B 1”). Because all measurement are done in multiples (i.e. at least duplicate) the arithmetic mean (or, equivalently, average.) of several measurements is used in determining the binding, and the standard error of the mean is used in determining the probable error in the measurement of the binding. The standard error of the mean of N measurements equals the square root of the following: the sum of the squares of the difference between each measurement and the mean, divided by the product of (N) and (N−1). Thus, in one embodiment, specific binding of the PDZ protein to the platebound peptide is determined by comparing the mean signal (“mean S”) and standard error of the signal (“SE”) for a particular PL-PDZ combination with the mean B1.
(§4) For convenience, the assay conditions described in this section are referred to as the “G’ assay” and the “G” assay,” with the specific conditions described in the preceding section on G assays being referred to as the “G° assay.” The “G′ assay” is identical to the “G° assay” except at step (2) the peptide concentration is 10 uM instead of 20 uM. […]

In experiment [2] the target is T2, MUPP1 domain 10 (Homo sapiens, UniProt O75970).
T2 construct: made in house; host or cells: E. coli (DH5alpha or BL-21)
T2 sequence (O75970 with tags, fused parts or gaps): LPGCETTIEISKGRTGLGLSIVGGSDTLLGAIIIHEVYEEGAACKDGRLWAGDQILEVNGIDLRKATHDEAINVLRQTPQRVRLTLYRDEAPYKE
In words: G assay PDZ-PL binding. Particulars: peptide 10 uM, protein 5. On the procedure:
as §1, §2, §3, §4

In experiment [3] the target is T3, SSTRIP domain 1 (Homo sapiens, UniProt Q9Y566).
T3 construct: made in house; host or cells: E. coli (DH5alpha, BL21 or JM109)
T3 sequence (Q9Y566 with tags, fused parts or gaps): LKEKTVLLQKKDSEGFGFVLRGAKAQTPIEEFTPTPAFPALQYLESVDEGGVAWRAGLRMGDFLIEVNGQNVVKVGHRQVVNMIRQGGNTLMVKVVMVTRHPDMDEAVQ
In words: G assay PDZ-PL binding. Particulars: peptide 10 uM, protein 5. As for the experimental part:
as §1, §2, §3, §4

Experiment [4] addresses DLG3 (PDZ1-2) (Homo sapiens, UniProt Q92796). Particulars: E6 peptide titrated against constant GST-PDZ; DLG3 (1-2). As for the experimental part:
(§5) (1) A GST/PDZ fusion protein, as well as GST alone as a negative control, are bound to a surface (e.g., a 96-well plate) and the surface blocked and washed as described supra for the “G” assay.
(§6) (2) 50 uL per well of a solution of biotinylated PL peptide (e.g. as shown in TABLE 2) is added to the surface in increasing concentrations in PBS/BSA (e.g. at 0.1 uM, 0.33 uM, 1 uM, 3.3 uM, 10 uM, 33 uM, and 100 uM). In one embodiment, the PL peptide is allowed to react with the bound GST/PDZ fusion protein (as well as the GST alone negative control) for 10 minutes at 4° C. followed by 20 minutes at 25° C. The plate is washed 3 times with ice cold PBS to remove unbound labeled peptide.
(§7) (3) The binding of the PL peptide to the immobilized PDZ-domain polypeptide is detected as described supra for the “G” assay.
(§8) (4) For each concentration of peptide, the net binding signal is determined by subtracting the binding of the peptide to GST alone from the binding of the peptide to the GST/PDZ fusion protein. The net binding signal is then plotted as a function of ligand concentration and the plot is fit (e.g. by using the Kaleidagraph software package curve fitting algorithm; Synergy Software) to the following equation, where “Signal[ligand]” is the net binding signal at PL peptide concentration “[ligand],” “Kd” is the apparent affinity of the binding event, and “Saturation Binding” is a constant determined by the curve fitting algorithm to optimize the fit to the experimental data: […]

In experiment [5] the test system is VARTUL. Particulars: E6 peptide titrated against constant GST-PDZ. As for the experimental part:
as §5, §6, §7, §8

Experiment [6] concerns SAST2. The settings on record: E6 peptide titrated against constant GST-PDZ; SAST2 (1). On the procedure:
as §5, §6, §7, §8

In experiment [7] the target is DLG2 (PDZ3) (Homo sapiens, UniProt Q15700). The settings on record: E6 peptide titrated against constant GST-PDZ; DLG2 (3). As for the experimental part: as §5, §6, §7, §8
The target in experiment [8] is SIP1 (PDZ1) (Homo sapiens, UniProt Q15599). Particulars: E6 peptide titrated against constant GST-PDZ; SIP1 (1). As for the experimental part:
as §5, §6, §7, §8

Several values for one entry are separate records, joined by “and”; a condition that tells them apart may be missing. Equal values may be shown once.

T1 sequence (Q9Y2H9 963-1055): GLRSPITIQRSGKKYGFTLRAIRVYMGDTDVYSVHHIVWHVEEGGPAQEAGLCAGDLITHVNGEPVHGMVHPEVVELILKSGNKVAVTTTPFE
Chain of SIP1 (PDZ1) (Q15599 with tags, fused parts or gaps): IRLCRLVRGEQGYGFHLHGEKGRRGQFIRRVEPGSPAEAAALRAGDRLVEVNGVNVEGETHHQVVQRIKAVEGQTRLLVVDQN
Chain of DLG3 (PDZ1-2) (Q92796 129-315 limits assumed): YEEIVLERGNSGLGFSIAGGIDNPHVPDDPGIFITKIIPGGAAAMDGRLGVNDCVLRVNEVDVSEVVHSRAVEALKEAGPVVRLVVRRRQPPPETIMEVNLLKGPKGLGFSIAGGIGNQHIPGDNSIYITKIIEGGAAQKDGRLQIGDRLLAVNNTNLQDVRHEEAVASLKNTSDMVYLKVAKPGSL

For the substance “20 mer peptide corresponding to the C-terminus of HPV16 E6 (PDZ ligand), biotinylated in binding assays; ends SSRTRRETQL (SEQ ID NO: 13) [HPV E6 #16]”, the “Ave OD” value in experiment [1] (A450 nm) was 0.378 and 0.4985; in experiment [2] (A450 nm) it was 0.3925 and 0.3915; in experiment [3] (A450 nm), 0.467. Also, the “OD S/N” value was 1.68 and 2.71 in experiment [1] (vs GST only well); 2.03 and 1.96 in experiment [2] (vs GST only well); 3.28 in experiment [3] (vs GST only well). Also, the EC50 (usually the concentration that produces a half-maximal response) in experiment [4] came out at 3.8 µM; in experiment [5], 0.94 µM; in experiment [6], 1.2 µM; in experiment [7], 1.6 µM; in experiment [8] it was 7.5 µM.
